Measurements reported in patent US8859535B2, “Hydroxy substituted isoquinolinone derivatives” (Novartis AG, priority 2011, dated 2014).

Legend:
Assay type in all cases: binding
[1] = biological target: T1, human MDM2 protein (amino acids 2-188) (Homo sapiens, UniProt Q00987); experiment: p53-MDM2 TR-FRET assay, modified (p53-MDM2 Assay 2); conditions: 0.1 nM MDM2, 0.1 nM Europium labeled streptavidin; read-out: IC50 (nM) of p53-Hdm2 inhibition (TR-FRET) Assay 2
T1 construct: human MDM2 protein (amino acids 2-188); made in house
T1 sequence (Q00987 2-188): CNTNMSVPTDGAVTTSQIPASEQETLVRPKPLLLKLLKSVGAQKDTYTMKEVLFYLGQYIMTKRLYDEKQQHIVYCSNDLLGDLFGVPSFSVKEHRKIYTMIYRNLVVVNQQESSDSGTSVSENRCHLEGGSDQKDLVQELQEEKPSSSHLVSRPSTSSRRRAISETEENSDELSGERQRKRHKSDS
Summary of the method: (§1)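 Peptide displacement read as 665/620 nm TR-FRET ratio (excitation 340 nm) after 15 min room temperature with 10 nM Cy5-p53 aa18-26, following 15 min preincubation of Eu-streptavidin (0.625 nM) with biotinylated MDM4 aa 2-185 (2.5 nM) or MDM2 aa 2-188 (1.25 nM); IC50 curve-fitted. MDM2 Assay 2: MDM2 and Eu-streptavidin each 0.1 nM.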

[2] = biological target: T2, human MDM4 protein (amino acids 2-185) (Homo sapiens, UniProt O15151); experiment: p53-MDM4 TR-FRET assay (p53-MDM4 Assay 1); conditions: 2.5 nM MDM4-biotinylated, 10 nM Cy5-p53 peptide; read-out: IC50 (μM) of p53-Hdm4 inhibition (TR-FRET) Assay 1
T2 construct: human MDM4 protein (amino acids 2-185); made in house
T2 sequence (O15151 2-185): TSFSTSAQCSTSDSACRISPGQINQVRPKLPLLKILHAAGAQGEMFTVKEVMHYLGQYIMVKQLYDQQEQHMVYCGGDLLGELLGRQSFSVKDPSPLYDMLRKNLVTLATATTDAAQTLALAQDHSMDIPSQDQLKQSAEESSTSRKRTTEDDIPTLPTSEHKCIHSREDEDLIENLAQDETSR
Summary of the method: as §1

[3] = biological target: T1, human MDM2 protein (amino acids 2-188); experiment: p53-MDM2 TR-FRET assay (p53-MDM2 Assay 1); conditions: 1.25 nM MDM2-biotinylated, 10 nM Cy5-p53 peptide; read-out: IC50 (μM) of p53-Hdm2 inhibition (TR-FRET) Assay 1
Summary of the method: as §1

Structure (SMILES)	IC50 [1] [nM]	IC50 [2] [µM]	IC50 [3] [µM]
COc1cc2c(cc1OC(C)C)[C@H](c1ccc(Cl)cc1)N(c1ccc(C(C)(O)C3CC4CCC(C3)N4C)cc1)C(=O)C2 (stereo partly drawn) [Example 105, (S)-1-(4-Chloro-phenyl)-2-{4-[1-hydroxy-1-(8-methyl-8-aza-bicyclo[3.2.1]oct-3-yl)-ethyl]-phenyl}-7-isopropoxy-6-methoxy-1,4-dihydro-2H-isoquinolin-3-one]	2.25	4.12	0.0043
COc1cc2c(cc1OC(C)C)[C@H](c1ccc(Cl)cc1)N(c1ccc(C(C)(O)C3CC4CCC(C3)N4C=O)cc1)C(=O)C2 (stereo partly drawn) [Example 111, 3-(1-{4-[(S)-1-(4-Chloro-phenyl)-7-isopropoxy-6-methoxy-3-oxo-3,4-dihydro-1H-isoquinolin-2-yl]-phenyl}-1-hydroxy-ethyl)-8-aza-bicyclo[3.2.1]octane-8-carbaldehyde]	1.5	2.55	0.0021
COc1cc2c(cc1OC(C)C)[C@H](c1ccc(Cl)cc1)N(c1ccc(C(C)(O)C3CCN(C4COC4)CC3)cc1)C(=O)C2 (stereo partly drawn) [Example 96, (S)-1-(4-Chloro-phenyl)-2-{4-[1-hydroxy-1-(1-oxetan-3-yl-piperidin-4-yl)-ethyl]-phenyl}-7-isopropoxy-6-methoxy-1,4-dihydro-2H-isoquinolin-3-one]	1.35	2.18	0.0021
COc1cc2c(cc1OC(C)C)[C@H](c1ccc(Cl)cc1)N(c1ccc(C(C)(O)C3CC4CCC(C3)N4C(=O)N(C)C)cc1)C(=O)C2 (stereo partly drawn) [Example 108, 3-(1-{4-[(S)-1-(4-Chloro-phenyl)-7-isopropoxy-6-methoxy-3-oxo-3,4-dihydro-1H-isoquinolin-2-yl]-phenyl}-1-hydroxy-ethyl)-8-aza-bicyclo[3.2.1]octane-8-carboxylic acid dimethylamide]	2.07	1.99	0.0027
COc1cc2c(cc1OC(C)C)[C@H](c1ccc(Cl)cc1)N(c1ccc(C(C)(O)C3CC4CCC(C3)N4S(C)(=O)=O)cc1)C(=O)C2 (stereo partly drawn) [Example 107, (S)-1-(4-Chloro-phenyl)-2-{4-[1-hydroxy-1-(8-methanesulfonyl-8-aza-bicyclo[3.2.1]oct-3-yl)-ethyl]-phenyl}-7-isopropoxy-6-methoxy-1,4-dihydro-2H-isoquinolin-3-one]	1.55	2.48	0.0028
COc1cc2c(cc1OC(C)C)[C@H](c1ccc(Cl)cc1)N(c1ccc(C(C)(O)C3CC4CCCC(C3)N4C=O)cc1)C(=O)C2 (stereo partly drawn) [Example 117, 3-(1-{4-[(S)-1-(4-Chloro-phenyl)-7-isopropoxy-6-methoxy-3-oxo-3,4-dihydro-1H-isoquinolin-2-yl]-phenyl}-1-hydroxy-ethyl)-9-aza-bicyclo[3.3.1]nonane-9-carbaldehyde]	1.6	2.88	0.0028
CCN1C2CCC1CC(C(C)(O)c1ccc(N3C(=O)Cc4cc(OC)c(OC(C)C)cc4[C@@H]3c3ccc(Cl)cc3)cc1)C2 (stereo partly drawn) [Example 112, (S)-1-(4-Chloro-phenyl)-2-{4-[1-(8-ethyl-8-aza-bicyclo[3.2.1]oct-3-yl)-1-hydroxy-ethyl]-phenyl}-7-isopropoxy-6-methoxy-1,4-dihydro-2H-isoquinolin-3-one]	2.76	3.46	0.003
COc1cc2c(cc1OC(C)C)[C@H](c1ccc(Cl)cc1)N(c1ccc(C(C)(O)C3CC4CCCC(C3)S4(=O)=O)cc1)C(=O)C2 (mixture of isomers) [Example 175, (S)-1-(4-Chloro-phenyl)-2-{4-[1-(9,9-dioxo-9-thia-bicyclo[3.3.1]non-3-yl)-1-hydroxy-ethyl]-phenyl}-7-isopropoxy-6-methoxy-1,4-dihydro-2H-isoquinolin-3-one]	1.92	3.58	0.0028
COc1cc2c(cc1OC(C)C)[C@H](c1ccc(Cl)cc1)N(c1ccc([C@@](C)(O)C3CCN(C)CC3)cc1)C(=O)C2 (single isomer, unassigned) [Example 94]	1.06	1.75	0.0016
COc1cc2c(cc1OC(C)C)[C@H](c1ccc(Cl)cc1)N(c1ccc(C(C)(O)C3CC4CCC(C3)N4CCO)cc1)C(=O)C2 (stereo partly drawn) [Example 113, (S)-1-(4-Chloro-phenyl)-2-(4-{1-hydroxy-1-[8-(2-hydroxy-ethyl)-8-aza-bicyclo[3.2.1]oct-3-yl]-ethyl}-phenyl)-7-isopropoxy-6-methoxy-1,4-dihydro-2H-isoquinolin-3-one]	2.52	4.45	0.0048
COc1cc2c(cc1OC(C)C)[C@H](c1ccc(Cl)cc1)N(c1ccc(C(C)(O)C3CCN(CCO)CC3)cc1)C(=O)C2 (stereo partly drawn) [Example 93, (S)-1-(4-Chloro-phenyl)-2-(4-{1-hydroxy-1-[1-(2-hydroxy-ethyl)-piperidin-4-yl]-ethyl}-phenyl)-7-isopropoxy-6-methoxy-1,4-dihydro-2H-isoquinolin-3-one]	2.3	3.35	0.0027
COC(=O)N1CCC(C(C)(O)c2ccc(N3C(=O)Cc4cc(OC)c(OC(C)C)cc4[C@@H]3c3ccc(Cl)cc3)cc2)CC1 (stereo partly drawn) [Example 76, 4-(1-{4-[(S)-1-(4-Chloro-phenyl)-7-isopropoxy-6-methoxy-3-oxo-3,4-dihydro-1H-isoquinolin-2-yl]-phenyl}-1-hydroxy-ethyl)-piperidine-1-carboxylic acid methyl ester]	2.34	1.91	0.0017
